# How the values were obtained:
# human PPARγ1 = biological target: T1, human PPARγ1 (Homo sapiens, UniProt P37231); test: Human PPARγ1 antagonist assay (luciferase reporter in PPARγ:RXRα:4ERPP/CHO-K1 cells); type: cell-based; conditions: test compound 10^−6 M, 10 nM compound A as stimulant, luciferase activity, 24 hrs, read-out: Inhibitory rate (%)
# T1 construct: expressed in transfected cells; host or cells: CHO-K1 cells stably transfected with pVgRXR2-hPPARγ and reporter plasmid pGL3-4ERPP-TK neo
# T1 sequence (P37231 1-477 isoform P37231-2): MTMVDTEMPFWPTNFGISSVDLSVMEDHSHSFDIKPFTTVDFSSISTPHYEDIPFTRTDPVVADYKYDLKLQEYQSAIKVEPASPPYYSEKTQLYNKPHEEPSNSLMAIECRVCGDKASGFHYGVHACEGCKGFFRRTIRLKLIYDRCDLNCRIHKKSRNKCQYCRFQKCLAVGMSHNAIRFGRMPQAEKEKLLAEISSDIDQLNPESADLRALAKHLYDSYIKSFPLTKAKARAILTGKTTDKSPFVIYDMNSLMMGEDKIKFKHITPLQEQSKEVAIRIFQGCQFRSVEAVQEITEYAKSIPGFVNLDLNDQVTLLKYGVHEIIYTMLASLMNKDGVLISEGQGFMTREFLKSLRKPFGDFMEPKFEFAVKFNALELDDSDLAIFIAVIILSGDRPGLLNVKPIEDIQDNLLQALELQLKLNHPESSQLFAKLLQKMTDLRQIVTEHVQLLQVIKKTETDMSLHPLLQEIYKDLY
# T1 sequence (P19793 1-462 partner): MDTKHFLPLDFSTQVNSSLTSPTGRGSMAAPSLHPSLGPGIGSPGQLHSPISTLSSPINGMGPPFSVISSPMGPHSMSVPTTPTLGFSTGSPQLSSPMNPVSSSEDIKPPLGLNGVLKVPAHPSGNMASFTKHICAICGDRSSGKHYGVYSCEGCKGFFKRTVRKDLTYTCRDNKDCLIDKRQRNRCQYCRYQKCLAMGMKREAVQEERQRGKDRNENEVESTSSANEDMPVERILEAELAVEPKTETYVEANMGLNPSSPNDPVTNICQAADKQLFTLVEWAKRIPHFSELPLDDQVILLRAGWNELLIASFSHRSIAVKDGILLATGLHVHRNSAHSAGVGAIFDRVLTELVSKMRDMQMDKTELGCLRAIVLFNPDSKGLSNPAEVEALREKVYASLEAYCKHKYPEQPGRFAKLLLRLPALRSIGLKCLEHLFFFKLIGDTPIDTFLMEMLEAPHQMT
# Protocol: PPARγ:RXRα:4ERPP/CHO-K1 cells (obtained in Reference Example 5a) cultured in Ham's F-12 medium (GIBCO, Inc.) supplemented with 10% fetal bovine serum (TRACE SCIENTIFIC, Ltd.) were seeded in a well of a 96 well white plate at 2×10^4 cells/well and cultured under 37° C. 5% CO2 conditions for 24 hrs. After removal of the medium, Ham's F-12 medium (GIBCO) containing 60 μl of 0.1% BSA (not containing fatty acid) (Wako Pure Chemical Industries, Ltd.), 20 μl of 10^−5M or 10^−6 M test compound and 20 μl of compound A having a final concentration of 10 nM as a stimulant were added, and the cells were cultured under 37° C. 5% CO2 conditions for 24 hrs. After removal of the medium, 40 μl of Pickagene LT7.5 (Wako Pure Chemical Industries, Ltd.) 2-fold diluted with HBSS (HANKS' BALANCED SALT SOLUTION) (BIO WHITTAKER Inc.) was added. After stirring, luciferase activity was measured using 1420 ARVO Multilabel Counter (Wallac, Inc.). In addition, a test similar to the above was conducted for the non-use of the aforementioned test compound alone and for the non-use of the aforementioned test compound and compound A to determine the luciferase activity.
# The human PPARγ1 antagonistic activity of the test compound was evaluated using percentages (% inhibition) wherein the luciferase activity when 10 nM compound A alone was added was 0%, and the luciferase activity when the test compound and compound A were not added was 100%. The concentration of the test compound was 10^−5 M for the compounds of Example 42 and 315 and 10^−6 M for other test compounds.
# After a CHO-K1 cell cultured in a cell culture flask (150 cm^2) (produced by Corning Costar Corporation, USA) containing Ham's F-12 medium (produced by Life Technologies, Inc., USA) supplemented with 10% fetal bovine serum (produced by Life Technologies, Inc., USA) was detached by treating with 0.5 g/L trypsin-0.2 g/L EDTA (ethylenediaminetetraacetic acid) (produced by Life Technologies, Inc., USA), the cell was washed with PBS (phosphate-buffered saline) (produced by Life Technologies, Inc., USA), centrifuged (1000 rpm, 5 minutes), and then suspended in PBS. Subsequently, the DNA was introduced into the cells under the conditions shown below using GENE PULSER (produced by Bio-Rad Laboratories, USA).
# Namely, to a cuvette having a 0.4 cm gap, added were 8×10^6 cells and 10 μg of plasmid pVgRXR2-hPPARγ obtained in Reference Example 4a and 10 μg of reporter plasmid pGL3-4ERPP-TK neo obtained in Reference Example 2a, which was subjected to electroporation at the voltage of 0.25 kV under the capacitance of 960 μF. Subsequently, the cell was transferred into a Ham's F-12 medium containing 10% fetal bovine serum and cultured for 24 hours and then the cells were detached again and centrifuged, and then suspended in HAM F12 medium containing 10% fetal bovine serum supplemented with 500 μg/ml of GENETICIN (produced by Life Technologies, Inc., USA) and 250 μg/ml of ZEOCIN (produced by Invitrogen, USA). The obtained suspension was diluted to the density of 10^4 cells/ml and inoculated to a 96-well plate (produced by Corning Costar Corporation, USA), which was cultured in a CO2 gas incubator at 37° C., whereby obtaining a GENETICIN- and ZEOCIN-resistant transformant. Subsequently, after the transformant cell line thus obtained was cultured in a 24-well plate (produced by Corning Costar Corporation, USA), selected was a cell line in which the luciferase was expressed and induced, i.e., PPARγ:RXRα:4ERPP/CHO-K1 cell by the addition of 10 μM pioglitazone hydrochloride.
inhibition at 1 µM (human PPARγ1) [%],melting point [°C],SMILES
111,–,"COc1cc(COc2nn(-c3ccccc3)cc2/C=C/c2csc(C(C)(C)C)n2)ccc1OCc1nc(-c2ccc(CC(=O)O)cc2)oc1C [Example 359, {4-[4-({4-[({4-[(E)-2-(2-tert-butyl-1,3-thiazol-4-yl)ethenyl]-1-phenyl-1H-pyrazol-3-yl}oxy)methyl]-2-methoxyphenoxy}methyl)-5-methyl-1,3-oxazol-2-yl]phenyl}acetic acid]"
114,–,"COc1cc(COc2nn(-c3ccccc3)cc2/C=C/c2coc(C(C)(C)C)n2)ccc1OCc1nc(-c2ccc(CC(=O)O)cc2)oc1C [Example 371, {4-[4-({4-[({4-[(E)-2-(2-tert-butyl-1,3-oxazol-4-yl)ethenyl]-1-phenyl-1H-pyrazol-3-yl}oxy)methyl]-2-methoxyphenoxy}methyl)-5-methyl-1,3-oxazol-2-yl]phenyl}acetic acid]"
112,144 to 147,"CCc1nc(/C=C/c2cn(-c3ccccc3)nc2OCc2ccc(OCc3nc(-c4cccc(-c5nnn[nH]5)c4)oc3C)c(OC)c2)cs1 [Example 373, 5-{3-[4-({4-[({4-[(E)-2-(2-ethyl-1,3-thiazol-4-yl)ethenyl]-1-phenyl-1H-pyrazol-3-yl}oxy)methyl]-2-methoxyphenoxy}methyl)-5-methyl-1,3-oxazol-2-yl]phenyl}-1H-tetrazole]"
–,156 to 158,"CCc1nc(/C=C/c2cn(-c3ccccc3)nc2OCc2cc(OCc3nc(-c4ccc(CC(=O)O)cc4)oc3C)no2)cs1 [Example 390, (4-{4-[({5-[({4-[(E)-2-(2-ethyl-1,3-thiazol-4-yl)ethenyl]-1-phenyl-1H-pyrazol-3-yl}oxy)methyl]isoxazol-3-yl}oxy)methyl]-5-methyl-1,3-oxazol-2-yl}phenyl)acetic acid]"

# From patent US7368578B2, “Five-membered heterocyclic compounds” (Takeda Pharmaceutical Company Limited, priority 2002, dated 2008)
